Test results published in US11000537B2, “Composition comprising novel ginsenoside” (AMOREPACIFIC CORPORATION, priority 2018, dated 2021).

Tests used:
[1] = target: T1, pancreatic α-amylase (Sus scrofa, UniProt P00690); assay: α-amylase enzyme activity inhibition; type: biochemical
T1 construct: purchased Sigma
T1 sequence (P00690 16-511): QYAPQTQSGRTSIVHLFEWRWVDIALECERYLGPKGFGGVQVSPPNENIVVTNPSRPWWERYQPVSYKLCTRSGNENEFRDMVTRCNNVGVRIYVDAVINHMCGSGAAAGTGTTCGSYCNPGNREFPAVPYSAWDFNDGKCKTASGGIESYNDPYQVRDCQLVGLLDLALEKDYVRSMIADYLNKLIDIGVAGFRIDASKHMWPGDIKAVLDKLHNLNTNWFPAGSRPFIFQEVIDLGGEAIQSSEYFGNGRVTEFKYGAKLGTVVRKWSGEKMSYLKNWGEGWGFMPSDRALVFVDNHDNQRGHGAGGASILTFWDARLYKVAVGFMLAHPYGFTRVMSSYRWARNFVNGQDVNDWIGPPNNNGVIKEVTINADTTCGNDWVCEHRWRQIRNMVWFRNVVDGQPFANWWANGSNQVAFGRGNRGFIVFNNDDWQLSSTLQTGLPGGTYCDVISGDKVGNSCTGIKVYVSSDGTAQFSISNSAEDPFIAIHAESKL
Experimental: (§1) As a polysaccharide degrading enzyme, pancreatic α-amylase and α-glucosidase were purchased from Sigma, and the enzyme activity of novel ginsenoside GS #10, which is an example of the present disclosure, isolated from Ginseng seed extract and ginsenosides GS #01-GS #06, which are comparative examples of the present disclosure, was measured. In order to measure α-amylase activity, enzyme solution was prepared by dissolving BSA 0.1 g, 0.01 g/L NaN3, α-amylase 0.2857 g in 50 mL of PBS (phosphate buffered saline), and 5 mM of p-nitrophenyl-α-D-maltopentoglycoside was dissolved in another PBS to make a substrate solution. 0.1 mL of the test substance was added to 0.5 mL of the enzyme solution, and then the initial absorbance was measured at 405 nm. After adding 0.5 mL of the substrate solution and reacting it for 5 minutes, the absorbance was measured again. The change in enzyme activity was measured by the difference in absorbance between the two reactions. The method for measuring α-glucosidase activity is the same as the method for measuring α-amylase activity, and differs only in α-glucosidase and substrate (p-nitrophenyl-α-D-glucopyranoside). As a positive control to observe the inhibition of enzyme activity, acarbose, which is an α-amylase inhibitor and α-glucosidase inhibitor derived from wheat seed sold by Sigma, was used.

[2] = tested on: α-glucosidase; assay: α-glucosidase enzyme activity inhibition; type: biochemical
Experimental: as §1

[3] = tested on: 3T1-L1 adipocytes; assay: glucose uptake (glucose transport) in differentiated adipocytes; type: cell-based; settings: 10 μM, FIG. 13
Experimental: 3T1-L1 adipocytes (ATCC) were purchased, and 10% bovine calf serum (Hyclone) and 1% penicillin/streptomycin (Sigma) were added to a Dulbecco's Modified Eagle's Medium (Sigma) and cultured in a 5% CO2 culture medium. In order to differentiate preadipocyte cells into adipocytes, a culture plate was filled with cells and cultured for 48 hours. The cells were then replaced in a DMEM medium to which 10% fetal bovine serum (FBS) (Hyclone), 0.5 mM 3-isobutyl-1-methylxanthine (Sigma), 1 μM dexamethasone (Sigma), 5 μg/ml insulin (Sigma), and 1% penicillin/streptomycin were added and cultured for another 48 hours. Thereafter, the cells were further cultured for 14 days while being replaced in a medium containing 10% FBS, 5 μg/ml insulin, and 1% penicillin/streptomycin at two-day intervals to obtain fully differentiated adipocytes. […] As a positive control for measuring glucose uptake in blood, Metformin (Sigma; 10 μM), which is used as a diabetic therapeutic agent, was used, and novel ginsenoside GS #10, which is an example of the present disclosure, isolated from Ginseng seed extract and ginsenosides GS #01-GS #06, which are comparative examples of the present disclosure, were treated with 10 μM each. In addition, both insulin-dependent/independent glucose transport capacity was measured by treating insulin together, which may promote glucose uptake.

[4] = tested on: SH-SY5Y cells; assay: cytotoxicity, Cell Counting Kit (CCK)-8; type: cell-based; settings: 0.1, 1, 5, 10, 20 and 50 μM, FIG. 17
Experimental: 10 μl of the CCK-8 reagent was added to the culturing SH-SY5Y cells (Dojindo, Md., USA) with reference to a 96-well plate, and left at 37° C. for 2 hours, and then the absorbance was measured at 450 nm. The cell viability was marked as a percentage (%) of the absolute optical density of each sample relative to the untreated sample. At this time, the concentration of the novel ginsenoside GS #10, which is an example of the present disclosure, contained in the medium in which the cells were cultured was 0.1, 1, 5, 10, 20, and 50 μM, respectively.

[5] = tested on: LDL receptor (LDLR); assay: LDL receptor gene expression in HepG2 (qPCR); type: cell-based; settings: 24 hours

## CC1(C)C(=O)CC[C@@]2(C)C1[C@@H](O[C@H]1OC(CO)[C@H](O)C(O)C1O[C@H]1OC(CO)[C@H](O)C(O)C1O)C[C@]1(C)C2C[C@@H](O)C2C([C@]3(C)CC[C@H](C(C)(C)O)O3)CC[C@]21C (stereo partly drawn) [GS #10, (20S,24R)-6-O-β-D-glucopyranosyl(1→2)-β-D-glucopyranoside-dammar-3-one-20,24-epoxy-6a,12b,25-triol]
[1]; 1, 10 μM, compared with ginsenosides Rg1, Rg3, Rb1, FIG. 14
  α-amylase activity inhibitory effect: much superior
[1]; Test Example 1, FIG. 11, ginseng seed ginsenosides compared
  α-amylase activity inhibitory effect: most excellent α-amylase activity inhibitory effect
[2]; 1, 10 μM, compared with ginsenosides Rg1, Rg3, Rb1, FIG. 15
  α-glucosidase activity inhibitory effect: much superior
[2]; Test Example 1, FIG. 12, ginseng seed ginsenosides compared
  α-glucosidase activity inhibitory effect: high inhibitory effect on α-glucosidase activity
[3]; combined with insulin (+insulin)
  glucose transport promotion: the glucose transport is further increased as compared with the insulin-only treatment group
[3]; material-only treatment (−insulin)
  glucose transport promotion: statistically significant glucose transport promotion
[4]
  cytotoxicity (cell viability): did not exhibit cytotoxicity up to 50 μM
[5]; 10 μM, HepG2, FIG. 29
  increase of LDLR expression level compared to the control (−): more than 2 times
[5]; 1 and 10 μM, compared with Rg1, Rg3, Rb1, FIG. 32
  promotion of intracellular transport (LDLR expression): most effective in inhibiting cholesterol synthesis and promoting intracellular transport
